Measured values taken from paper PMC314469, “Protein Interaction Networks by Proteome Peptide Scanning” (PLoS Biology, 2004).

Tested on: Myo5 SH3 domain
Assay: SPOT analysis of cellulose-bound peptides (WISE), Myo5 SH3 domain (Dataset S4)
Type: binding, Saccharomyces cerevisiae
Details: for The normalized value in BLU units: Myo5 SH3 domain
[1] = SPOT analysis of cellulose-bound 14-mer yeast proteome peptides, normalized value, mean where the peptide was synthesized more than once
[2] = SPOT analysis of membrane-bound peptides, normalized value (see methods)
[3] = SPOT analysis of cellulose-bound peptides probed with Myo5 SH3 domain, normalized value
[4] = SPOT analysis of membrane-synthesized peptides probed with Myo5 SH3 domain, normalized value

Sequence: YWKLFFQPEYPVRM
- The normalized value in BLU units [1]: 144.2 BLU

Sequence: VAKSYGFPVPPKVN
- The normalized value in BLU units [1]: 258.9 BLU

Sequence: LGLHKWLPDIPLFE
- The normalized value in BLU units [2]: 167.8 BLU

Sequence: SPSQYQYPSQPALS
- The normalized value in BLU units [1]: 65.2 BLU

Sequence: EWPGLDPPYIPLDF
- The normalized value in BLU units (SPOT analysis, Myo5 SH3) [3]: 62.7 BLU

Sequence: VIIGKTTPISPDEE
- The normalized value in BLU units [2]: 54.0 BLU

Sequence: KPSLWEAPQNPPYS
- The normalized value in BLU units [1]: 152.4 BLU

Sequence: FWKIHLSPPLPSFK
- The normalized value in BLU units (SPOT analysis, Myo5 SH3) [3]: 965.5 BLU

Sequence: GFQDRSLPHFPKNS
- The normalized value in BLU units [2]: 178.5 BLU

Sequence: YASQYSRPDGPILL
- The normalized value in BLU units [1]: 113.5 BLU

Sequence: GAPPLPVPNGPAVG
- The normalized value in BLU units (SPOT analysis, Myo5 SH3) [3]: 222.0 BLU

Sequence: EGRCRLFPHCPLGR
- The normalized value in BLU units [2]: 141.3 BLU

Sequence: KLVKFKLPFLPISD
- The normalized value in BLU units [1]: 974.1 BLU

Sequence: KLEDLNEPLSPWIS
- The normalized value in BLU units (SPOT analysis, Myo5 SH3) [3]: 71.1 BLU

Sequence: MAKSFADPRVPQPM
- The normalized value in BLU units (SPOT analysis, Myo5 SH3) [3]: 172.2 BLU

Sequence: WRWARDTPRAPGLH
- The normalized value in BLU units (SPOT analysis, Myo5 SH3) [4]: 2104.5 BLU

Sequence: RLNSFAPPPNPYAT
- The normalized value in BLU units [1]: 273.6 BLU

Sequence: DEFNRNTPPQPSLL
- The normalized value in BLU units (SPOT analysis, Myo5 SH3) [4]: 118.0 BLU

Sequence: QPTNFQYPPPPFGQ
- The normalized value in BLU units (SPOT analysis, Myo5 SH3) [3]: 224.1 BLU

Sequence: AFHELGIPVIPNPS
- The normalized value in BLU units (SPOT analysis, Myo5 SH3) [3]: 193.0 BLU

Sequence: HAWDMRSPHRPFYS
- The normalized value in BLU units (SPOT analysis, Myo5 SH3) [3]: 822.1 BLU

Sequence: YILPKTDPRSPYYI
- The normalized value in BLU units (SPOT analysis, Myo5 SH3) [4]: 188.5 BLU

Sequence: KAIVWRLPKMPKIK
- The normalized value in BLU units [1]: 515.4 BLU

Sequence: KLKIKILPEQPQLE
- The normalized value in BLU units [2]: 261.3 BLU

Sequence: YEADYVIPVLPGSH
- The normalized value in BLU units [1]: 124.6 BLU

Sequence: VHVLKYAPDEPNSL
- The normalized value in BLU units (SPOT analysis, Myo5 SH3) [4]: 191.3 BLU

Sequence: VAPGLWFPNSPPPL
- The normalized value in BLU units [1]: 4831.4 BLU

Sequence: DSYSRSRPTRPLGY
- The normalized value in BLU units [2]: 261.3 BLU

Sequence: NTIIKLFPYIPIPV
- The normalized value in BLU units [2]: 203.7 BLU

Sequence: KSIPRTKPNVPPLQ
- The normalized value in BLU units [2]: 343.4 BLU

Sequence: KMAKKLLPYKPHNS
- The normalized value in BLU units (SPOT analysis, Myo5 SH3) [4]: 707.5 BLU

Sequence: TGYPRYFPQPPVQR
- The normalized value in BLU units [2]: 5858.1 BLU

Sequence: LIWHKNKPTKPDNK
- The normalized value in BLU units [1]: 300.3 BLU

Sequence: NSTVRRKPHSPNKK
- The normalized value in BLU units (SPOT analysis, Myo5 SH3) [4]: 955.5 BLU

Sequence: LLISHLFPTNPEFS
- The normalized value in BLU units (SPOT analysis, Myo5 SH3) [3]: 413.9 BLU

Sequence: HLDSFSPPFSPSTT
- The normalized value in BLU units [1]: 120.7 BLU

Sequence: TGKFRYMPFSPAGT
- The normalized value in BLU units (SPOT analysis, Myo5 SH3) [4]: 555.5 BLU

Sequence: YSTNRGIPARPCKD
- The normalized value in BLU units [1]: 271.3 BLU

Sequence: VLFMKGTPEFPKCG
- The normalized value in BLU units (SPOT analysis, Myo5 SH3) [4]: 212.8 BLU

Sequence: SMAMRPIPPLPTES
- The normalized value in BLU units [2]: 1326.7 BLU

Sequence: APPALSAPSVPPVP
- The normalized value in BLU units [1]: 6575.3 BLU

Sequence: KTKKKTVPVKPLQL
- The normalized value in BLU units [1]: 358.9 BLU

Sequence: TGGGRIVPGVPPGA
- The normalized value in BLU units (SPOT analysis, Myo5 SH3) [4]: 118.4 BLU

Sequence: SWRSLTKPKIPLYK
- The normalized value in BLU units [1]: 356.9 BLU

Sequence: INNTRLSPNSPTPP
- The normalized value in BLU units [1]: 139.6 BLU

Sequence: VPGGMSIPGAPQGA
- The normalized value in BLU units (SPOT analysis, Myo5 SH3) [3]: 139.5 BLU

Sequence: KLNCLQIPHLPPSV
- The normalized value in BLU units (SPOT analysis, Myo5 SH3) [3]: 349.8 BLU

Sequence: LPLPKLRPPRPTFA
- The normalized value in BLU units (SPOT analysis, Myo5 SH3) [4]: 77883.2 BLU

Sequence: NAQLRKTPLEPGLE
- The normalized value in BLU units [1]: 175.9 BLU

Sequence: PLPTFSAPSLPQQS
- The normalized value in BLU units [1]: 46960.5 BLU

Sequence: KPPSYPSPVQPPQS
- The normalized value in BLU units (SPOT analysis, Myo5 SH3) [3]: 16459.5 BLU

Sequence: NFPQRMMPPPPGLV
- The normalized value in BLU units (SPOT analysis, Myo5 SH3) [4]: 617.7 BLU

Sequence: FIKNKAKPLIPIEL
- The normalized value in BLU units [2]: 656.3 BLU

Sequence: DLDWRKIPFLPKEI
- The normalized value in BLU units [1]: 250.1 BLU

Sequence: PPQMRSNPQQPPQD
- The normalized value in BLU units (SPOT analysis, Myo5 SH3) [4]: 268.2 BLU

Sequence: SPVPLGSPRGPLPV
- The normalized value in BLU units [1]: 135.1 BLU

Sequence: TFSIYSIPSKPGEC
- The normalized value in BLU units (SPOT analysis, Myo5 SH3) [3]: 226.8 BLU

Sequence: YVNPRNLPSVPNGL
- The normalized value in BLU units (SPOT analysis, Myo5 SH3) [4]: 179.8 BLU

Sequence: NTINKSNPQGPSDN
- The normalized value in BLU units (SPOT analysis, Myo5 SH3) [4]: 76.2 BLU

Sequence: LKHTKNKPKNPDTA
- The normalized value in BLU units (SPOT analysis, Myo5 SH3) [4]: 406.0 BLU
